# Experimental data from US20030130216A1, “Use of inhibitors of caspase-3 or caspase-activated desoxyribonuclease(cad) for treating cardiac disease” (priority 2000, published 2003).
# System: healthy adult ventricular cardiac muscle cells
# Assay: Microinjection of activated caspase-3 into isolated ventricular cardiac muscle cells
# Type: cell-based, rabbit
# Conditions: pre-incubation of the muscle cells with inhibitor (100 μmol/l)
# Procedure: The microinjection experiments were carried out on freshly isolated cardiac muscle cells of sham-operated rabbits by means of a “Femto-Jet” microinjection device (Eppendorf, Hamburg, Germany). FITC-conjugated dextran (6 mg/ml), alone or in combination with human recombinant active caspase-3 (4 ng/μl and 20 ng/μl) in 5 mmol/l potassium phosphate buffer (pH value 7.4; 100 mmol/l KCl) was injected into the cytoplasm of the cells in culture medium (Pi=1000 hPa, ti=0.1 sec., Pc=30 hPa) which had been supplemented with 200 μmol/l BDM (butanedione-monoxime, Sigma, Taufkirchen, Germany), 10 μmol/l verapamil and, optionally, 100 μmol/l […]. After incubation for two hours, contraction measurements or phalloidin staining were carried out. Injected cells were selected by means of FITC fluorescence.
# In order to be able to study whether the activation of caspase-3 is sufficient for the induction of the worsening of sarcomere organisation, the activated enzyme was injected into the cytoplasm of healthy adult ventricular cardiac muscle cells. Positive cells (approximately 10 to 20%) were identified by means of FITC fluorescence. The morphological features of the cardiac muscle cells after microinjection of activated caspase-3 (4 ng/μl and 20 ng/μl) in comparison with control-injected cells are shown in FIGS. 9(a+b). […]
substance,measurement,value
DEVD-fmk,caspase-3-mediated lowering of contraction,blocked
